According to ChEMBL document CHEMBL4330091, “The discovery and optimization of benzimidazoles as selective NaV1.8 blockers for the treatment of pain” (Bioorg Med Chem, 2019):
Converted amounts (≈) assume the structure as drawn.

Tests used:
[1] = molecular target: Sodium channel protein type 4 subunit alpha (Homo sapiens, UniProt P35499); assay: Inhibition of human Nav1.4
[2] = molecular target: Potassium voltage-gated channel subfamily A member 2 (Homo sapiens, UniProt P16389); assay: Inhibition of Kv1.2 (unknown origin)
[3] = Apparent permeability from apical to basolateral in RRCK cells; format: ADME, cell-based, Canis lupus familiaris, MDCKII-LE; conditions: dog, MDCK
[4] = AUC (0 to infinity) in rat at 1 mg/kg, iv or 3 mg/kg, po; format: ADME, organism-based; conditions: in vivo
[5] = molecular target: Voltage-gated inwardly rectifying potassium channel KCNH2 (Homo sapiens, UniProt Q12809); assay: Inhibition of human ERG
Sequence of Voltage-gated inwardly rectifying potassium channel KCNH2 (Q12809 whole entry): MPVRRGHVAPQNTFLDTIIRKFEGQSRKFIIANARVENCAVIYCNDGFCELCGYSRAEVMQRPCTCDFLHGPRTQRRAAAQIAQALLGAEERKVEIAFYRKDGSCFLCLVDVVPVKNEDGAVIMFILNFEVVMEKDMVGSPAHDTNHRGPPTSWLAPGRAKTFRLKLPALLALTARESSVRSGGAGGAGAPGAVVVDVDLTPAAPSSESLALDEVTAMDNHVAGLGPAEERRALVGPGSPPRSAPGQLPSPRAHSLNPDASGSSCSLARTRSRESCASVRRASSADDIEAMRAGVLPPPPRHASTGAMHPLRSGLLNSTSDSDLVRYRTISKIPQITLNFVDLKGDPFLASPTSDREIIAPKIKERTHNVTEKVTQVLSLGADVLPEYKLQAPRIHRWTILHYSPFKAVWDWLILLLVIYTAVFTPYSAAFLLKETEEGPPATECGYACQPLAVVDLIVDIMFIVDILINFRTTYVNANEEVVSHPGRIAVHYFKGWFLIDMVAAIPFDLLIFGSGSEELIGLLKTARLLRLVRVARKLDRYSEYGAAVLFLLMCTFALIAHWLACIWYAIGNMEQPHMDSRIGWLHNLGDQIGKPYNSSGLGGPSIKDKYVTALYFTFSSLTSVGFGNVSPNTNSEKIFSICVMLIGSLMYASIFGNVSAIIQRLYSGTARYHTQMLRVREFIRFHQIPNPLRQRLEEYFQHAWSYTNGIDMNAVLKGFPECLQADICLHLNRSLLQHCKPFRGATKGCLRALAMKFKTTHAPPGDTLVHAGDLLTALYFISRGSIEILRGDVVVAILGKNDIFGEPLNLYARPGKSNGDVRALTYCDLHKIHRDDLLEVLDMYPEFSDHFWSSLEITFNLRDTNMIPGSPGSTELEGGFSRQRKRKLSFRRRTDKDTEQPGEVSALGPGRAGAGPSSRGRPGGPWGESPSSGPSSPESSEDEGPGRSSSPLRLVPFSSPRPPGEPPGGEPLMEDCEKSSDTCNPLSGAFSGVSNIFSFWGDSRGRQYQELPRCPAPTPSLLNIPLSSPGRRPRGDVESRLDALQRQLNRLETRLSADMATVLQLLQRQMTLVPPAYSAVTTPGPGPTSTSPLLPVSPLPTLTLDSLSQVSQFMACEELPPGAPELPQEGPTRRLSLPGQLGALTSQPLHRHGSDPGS

[6] = Oral bioavailability in rat at 3 mg/kg; format: ADME, organism-based; conditions: in vivo
[7] = molecular target: Sodium channel protein type 9 subunit alpha (Homo sapiens, UniProt Q15858); assay: Inhibition of human Nav1.7
[8] = molecular target: Potassium voltage-gated channel subfamily A member 1 (Homo sapiens, UniProt Q09470); assay: Inhibition of Kv1.1 (unknown origin)
[9] = molecular target: Sodium channel protein type 2 subunit alpha (Homo sapiens, UniProt Q99250); assay: Inhibition of human Nav1.2
[10] = molecular target: Voltage-gated T-type calcium channel (Homo sapiens, UniProt O95180+O43497+Q9P0X4); assay: Inhibition of T-type calcium channel (unknown origin); format: protein assay
[11] = Volume of distribution in rat at 1 mg/kg, iv or 3 mg/kg, po; format: ADME, organism-based; conditions: in vivo
[12] = Stability in human hepatocytes assessed per million cells; format: ADME, cell-based, Hepatocyte
[13] = Stability in human liver microsomes assessed per mg protein; format: ADME, Microsome
[14] = molecular target: Sodium channel protein type 1 subunit alpha (Homo sapiens, UniProt P35498); assay: Inhibition of human Nav1.1
[15] = molecular target: Voltage-gated L-type calcium channel (Homo sapiens, UniProt Q13936+Q13698+Q01668+O60840); assay: Inhibition of L-type calcium channel (unknown origin); format: protein assay
[16] = Dissociation constant, pKa of the compound; format: physicochemical
[17] = Lipophilicity, log D of the compound; format: physicochemical; conditions: octanol/water
[18] = molecular target: Small conductance calcium-activated potassium channel protein 2 (Homo sapiens, UniProt Q9H2S1); assay: Inhibition of SK2 (unknown origin)
[19] = molecular target: Sodium channel protein type 5 subunit alpha (Homo sapiens, UniProt Q14524); assay: Inhibition of human Nav1.5
Sequence of Sodium channel protein type 5 subunit alpha (Q14524 whole entry): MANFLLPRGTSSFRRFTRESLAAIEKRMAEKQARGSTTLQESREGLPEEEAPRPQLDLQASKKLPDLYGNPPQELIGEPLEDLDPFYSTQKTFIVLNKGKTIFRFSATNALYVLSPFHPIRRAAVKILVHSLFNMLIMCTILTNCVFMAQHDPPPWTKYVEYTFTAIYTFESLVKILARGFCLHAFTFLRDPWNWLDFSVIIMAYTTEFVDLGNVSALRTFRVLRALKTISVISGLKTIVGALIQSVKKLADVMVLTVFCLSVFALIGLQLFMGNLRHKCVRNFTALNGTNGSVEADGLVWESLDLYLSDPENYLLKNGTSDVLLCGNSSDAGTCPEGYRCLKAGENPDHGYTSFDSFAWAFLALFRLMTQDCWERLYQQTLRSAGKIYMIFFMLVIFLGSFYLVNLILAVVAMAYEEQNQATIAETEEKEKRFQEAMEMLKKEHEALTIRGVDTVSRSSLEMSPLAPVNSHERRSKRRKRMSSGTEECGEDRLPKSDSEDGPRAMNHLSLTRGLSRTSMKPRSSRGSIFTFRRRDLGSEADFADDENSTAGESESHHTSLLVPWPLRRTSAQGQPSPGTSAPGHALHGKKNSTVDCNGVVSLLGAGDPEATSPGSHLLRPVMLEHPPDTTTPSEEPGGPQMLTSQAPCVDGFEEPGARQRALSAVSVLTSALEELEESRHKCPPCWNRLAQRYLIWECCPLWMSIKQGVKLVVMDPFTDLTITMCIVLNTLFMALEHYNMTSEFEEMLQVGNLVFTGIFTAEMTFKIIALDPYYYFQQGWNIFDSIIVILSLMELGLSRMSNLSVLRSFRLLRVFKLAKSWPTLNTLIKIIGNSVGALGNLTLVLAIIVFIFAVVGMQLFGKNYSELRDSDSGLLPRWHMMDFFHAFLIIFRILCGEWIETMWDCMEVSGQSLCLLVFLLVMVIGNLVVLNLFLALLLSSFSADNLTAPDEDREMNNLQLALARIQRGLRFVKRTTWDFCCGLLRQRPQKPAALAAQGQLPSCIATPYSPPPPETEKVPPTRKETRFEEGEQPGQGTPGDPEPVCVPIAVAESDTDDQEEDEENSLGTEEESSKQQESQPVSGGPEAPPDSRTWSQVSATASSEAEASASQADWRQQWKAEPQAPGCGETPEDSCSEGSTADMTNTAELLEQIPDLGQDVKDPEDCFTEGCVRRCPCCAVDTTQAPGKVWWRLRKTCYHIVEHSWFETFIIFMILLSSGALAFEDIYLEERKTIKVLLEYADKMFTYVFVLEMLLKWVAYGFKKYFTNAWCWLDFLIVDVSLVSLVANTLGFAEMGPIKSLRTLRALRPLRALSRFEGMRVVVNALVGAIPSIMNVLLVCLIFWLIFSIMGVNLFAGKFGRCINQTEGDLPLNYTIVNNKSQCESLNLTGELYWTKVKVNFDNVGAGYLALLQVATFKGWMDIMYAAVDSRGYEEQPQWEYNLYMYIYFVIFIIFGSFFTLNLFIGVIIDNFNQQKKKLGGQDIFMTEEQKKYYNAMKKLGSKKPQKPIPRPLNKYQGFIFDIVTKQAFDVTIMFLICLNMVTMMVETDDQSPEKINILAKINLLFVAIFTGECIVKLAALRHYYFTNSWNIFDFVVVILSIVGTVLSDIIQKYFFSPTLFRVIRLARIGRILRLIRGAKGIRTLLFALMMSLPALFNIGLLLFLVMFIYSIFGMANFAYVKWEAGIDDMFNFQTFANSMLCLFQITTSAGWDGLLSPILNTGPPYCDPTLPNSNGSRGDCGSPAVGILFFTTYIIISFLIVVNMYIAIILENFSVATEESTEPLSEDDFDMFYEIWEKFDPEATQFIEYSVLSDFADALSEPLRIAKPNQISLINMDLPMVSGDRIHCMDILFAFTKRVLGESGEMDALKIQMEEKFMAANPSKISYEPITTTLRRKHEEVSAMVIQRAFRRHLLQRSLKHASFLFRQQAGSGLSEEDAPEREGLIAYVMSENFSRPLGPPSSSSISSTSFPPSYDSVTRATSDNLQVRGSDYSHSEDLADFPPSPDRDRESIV

[20] = Half life in rat at 1 mg/kg, iv or 3 mg/kg, po; format: ADME, organism-based; conditions: in vivo
[21] = molecular target: Potassium voltage-gated channel subfamily A member 5 (Homo sapiens, UniProt P22460); assay: Inhibition of Kv1.5 (unknown origin)
[22] = Plasma clearance in rat at 1 mg/kg, iv or 3 mg/kg, po; format: ADME, organism-based
[23] = Unbound clearance in rat at 1 mg/kg, iv or 3 mg/kg, po; format: ADME, organism-based; conditions: in vivo
[24] = molecular target: T1, Potassium voltage-gated channel subfamily KQT member 1 (Homo sapiens, UniProt P51787); assay: Inhibition of KvLQT1 (unknown origin)
T1 sequence (P51787 whole entry): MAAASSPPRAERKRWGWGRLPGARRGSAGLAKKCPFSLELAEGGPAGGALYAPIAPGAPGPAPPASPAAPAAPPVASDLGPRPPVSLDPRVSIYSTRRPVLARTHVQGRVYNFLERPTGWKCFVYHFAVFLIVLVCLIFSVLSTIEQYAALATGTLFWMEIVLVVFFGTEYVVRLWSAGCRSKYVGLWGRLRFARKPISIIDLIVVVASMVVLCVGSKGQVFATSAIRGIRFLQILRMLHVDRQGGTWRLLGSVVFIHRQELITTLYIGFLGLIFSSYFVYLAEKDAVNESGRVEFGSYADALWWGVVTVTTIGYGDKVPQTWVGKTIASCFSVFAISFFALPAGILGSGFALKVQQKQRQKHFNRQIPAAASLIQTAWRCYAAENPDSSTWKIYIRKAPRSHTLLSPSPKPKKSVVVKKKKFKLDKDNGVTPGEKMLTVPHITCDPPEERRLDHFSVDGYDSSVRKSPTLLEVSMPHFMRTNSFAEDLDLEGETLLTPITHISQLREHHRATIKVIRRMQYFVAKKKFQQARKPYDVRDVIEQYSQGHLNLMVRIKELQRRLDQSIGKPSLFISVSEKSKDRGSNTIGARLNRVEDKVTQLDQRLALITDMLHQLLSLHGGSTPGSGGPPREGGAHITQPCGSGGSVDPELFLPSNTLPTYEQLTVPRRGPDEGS

[25] = molecular target: Sodium channel protein type 10 subunit alpha (Homo sapiens, UniProt Q9Y5Y9); assay: Inhibition of human Nav1.8 expressed in HEK cells by patch-clamp electrophysiology method; format: cell-based
Sequence of Sodium channel protein type 10 subunit alpha (Q9Y5Y9 whole entry): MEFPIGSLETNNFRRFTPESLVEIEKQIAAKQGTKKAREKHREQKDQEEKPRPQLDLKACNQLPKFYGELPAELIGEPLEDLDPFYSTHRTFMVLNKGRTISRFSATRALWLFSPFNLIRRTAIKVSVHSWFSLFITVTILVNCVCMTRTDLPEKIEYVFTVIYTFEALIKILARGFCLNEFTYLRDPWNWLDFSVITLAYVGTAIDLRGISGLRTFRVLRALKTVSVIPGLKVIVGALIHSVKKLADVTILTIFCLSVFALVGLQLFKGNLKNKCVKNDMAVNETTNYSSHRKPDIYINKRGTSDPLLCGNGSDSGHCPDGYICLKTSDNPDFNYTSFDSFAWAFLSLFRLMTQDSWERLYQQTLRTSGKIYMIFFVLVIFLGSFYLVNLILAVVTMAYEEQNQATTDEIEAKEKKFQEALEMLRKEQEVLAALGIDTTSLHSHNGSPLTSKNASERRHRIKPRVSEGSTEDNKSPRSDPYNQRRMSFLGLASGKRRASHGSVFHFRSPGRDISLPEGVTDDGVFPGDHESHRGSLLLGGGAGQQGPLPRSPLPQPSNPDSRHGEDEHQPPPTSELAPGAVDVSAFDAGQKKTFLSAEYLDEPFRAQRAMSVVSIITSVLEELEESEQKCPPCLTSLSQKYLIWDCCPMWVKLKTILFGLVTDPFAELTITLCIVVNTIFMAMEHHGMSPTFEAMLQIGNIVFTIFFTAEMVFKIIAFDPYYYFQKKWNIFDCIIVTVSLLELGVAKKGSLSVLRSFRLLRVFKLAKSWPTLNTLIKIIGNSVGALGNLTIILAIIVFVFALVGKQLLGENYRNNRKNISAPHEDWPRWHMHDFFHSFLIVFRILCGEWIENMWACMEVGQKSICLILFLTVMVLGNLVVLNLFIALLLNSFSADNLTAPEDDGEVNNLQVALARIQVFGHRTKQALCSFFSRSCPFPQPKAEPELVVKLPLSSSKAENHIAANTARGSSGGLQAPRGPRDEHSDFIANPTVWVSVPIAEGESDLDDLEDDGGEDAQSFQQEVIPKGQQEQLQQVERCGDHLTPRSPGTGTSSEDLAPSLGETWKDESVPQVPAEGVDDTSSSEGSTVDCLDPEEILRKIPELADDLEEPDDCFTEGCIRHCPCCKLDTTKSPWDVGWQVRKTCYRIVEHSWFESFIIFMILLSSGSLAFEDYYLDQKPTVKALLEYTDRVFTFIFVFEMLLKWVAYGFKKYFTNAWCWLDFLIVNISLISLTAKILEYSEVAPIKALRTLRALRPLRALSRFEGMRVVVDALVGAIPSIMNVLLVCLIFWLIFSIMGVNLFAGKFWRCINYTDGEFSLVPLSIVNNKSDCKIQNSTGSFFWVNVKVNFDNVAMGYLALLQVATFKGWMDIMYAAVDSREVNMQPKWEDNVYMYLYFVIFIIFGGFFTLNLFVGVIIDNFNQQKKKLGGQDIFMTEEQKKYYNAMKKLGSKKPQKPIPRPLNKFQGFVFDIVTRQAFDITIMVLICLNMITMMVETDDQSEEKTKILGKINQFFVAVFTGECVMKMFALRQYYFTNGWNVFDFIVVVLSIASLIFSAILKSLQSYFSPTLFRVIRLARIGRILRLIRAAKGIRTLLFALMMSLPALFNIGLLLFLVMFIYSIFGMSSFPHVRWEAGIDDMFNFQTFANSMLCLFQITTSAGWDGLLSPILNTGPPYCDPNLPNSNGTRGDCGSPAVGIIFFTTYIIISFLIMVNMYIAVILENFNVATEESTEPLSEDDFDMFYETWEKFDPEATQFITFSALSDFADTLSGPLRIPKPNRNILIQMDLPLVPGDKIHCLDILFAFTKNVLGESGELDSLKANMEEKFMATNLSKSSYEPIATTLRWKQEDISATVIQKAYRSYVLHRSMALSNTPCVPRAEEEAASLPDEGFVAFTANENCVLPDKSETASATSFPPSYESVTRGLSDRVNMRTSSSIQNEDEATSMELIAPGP

[26] = molecular target: Sodium channel protein type 3 subunit alpha (Homo sapiens, UniProt Q9NY46); assay: Inhibition of human Nav1.3
[27] = Solubility of the compound at pH 7.4; format: physicochemical; conditions: buffer
[28] = molecular target: Sodium channel protein type 8 subunit alpha (Homo sapiens, UniProt Q9UQD0); assay: Inhibition of human Nav1.6
[29] = molecular target: T2, Gamma-aminobutyric acid receptor subunit alpha-1/gamma-2 (Homo sapiens, UniProt P14867+P18507); assay: Inhibition of GABA receptor alpha1gamma2 (unknown origin); format: protein-complex assay
T2 sequence (P14867 whole entry): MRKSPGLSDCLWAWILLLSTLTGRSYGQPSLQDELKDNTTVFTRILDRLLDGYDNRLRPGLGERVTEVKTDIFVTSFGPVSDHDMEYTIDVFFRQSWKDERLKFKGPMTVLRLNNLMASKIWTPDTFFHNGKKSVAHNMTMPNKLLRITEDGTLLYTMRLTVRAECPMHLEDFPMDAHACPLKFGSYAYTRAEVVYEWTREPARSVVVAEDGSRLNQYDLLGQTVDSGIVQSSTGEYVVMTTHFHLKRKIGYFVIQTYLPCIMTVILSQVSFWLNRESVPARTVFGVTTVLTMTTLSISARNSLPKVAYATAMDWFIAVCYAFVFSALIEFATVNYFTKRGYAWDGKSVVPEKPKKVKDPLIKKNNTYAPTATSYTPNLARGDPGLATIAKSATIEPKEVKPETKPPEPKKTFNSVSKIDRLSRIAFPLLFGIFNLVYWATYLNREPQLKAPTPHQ
T2 sequence (P18507 whole entry): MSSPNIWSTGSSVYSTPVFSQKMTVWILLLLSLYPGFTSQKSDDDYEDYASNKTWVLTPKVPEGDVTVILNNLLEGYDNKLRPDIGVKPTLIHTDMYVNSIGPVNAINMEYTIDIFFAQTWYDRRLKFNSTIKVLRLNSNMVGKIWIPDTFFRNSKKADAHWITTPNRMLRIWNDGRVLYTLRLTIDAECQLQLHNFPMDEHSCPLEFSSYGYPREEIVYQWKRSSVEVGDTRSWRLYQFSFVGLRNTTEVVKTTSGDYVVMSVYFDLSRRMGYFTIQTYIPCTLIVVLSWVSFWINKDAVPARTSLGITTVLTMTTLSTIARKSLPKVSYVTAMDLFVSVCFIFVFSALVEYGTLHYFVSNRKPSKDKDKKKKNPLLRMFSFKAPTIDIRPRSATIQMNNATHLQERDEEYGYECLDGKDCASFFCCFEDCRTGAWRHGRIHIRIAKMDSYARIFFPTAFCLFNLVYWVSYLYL

Nav1.5 (SCN5A) = Nav1.5 (SCN5A) (Homo sapiens, UniProt Q14524); assay: Inhibition of human Nav1.5 at 10 uM

Compound C[C@@H](C(N)=O)[C@H](N)c1nc2ccc(C(C)(C)C)cc2[nH]1 [PF-06305591] has an IC50 [1] greater than 30000 nM, an IC50 [2] greater than 30000 nM and a Papp A→B [3] of 3.5 ×10⁻⁶ cm/s. For the same compound, the AUC(0-inf) [4] was 962 ng·h/mL, the IC50 [5] was greater than 30000 nM and the bioavailability [6] was 61%. The IC50 [7] was greater than 30000 nM, the IC50 [8] was greater than 30000 nM and the IC50 [9] was greater than 30000 nM. For the same compound, the IC50 [10] was greater than 30000 nM, the Vd [11] was 2.3 L/kg and the Stability [12] was less than 2 µL/min. The Stability [13] was less than 11 µL/min, the IC50 [14] was greater than 30000 nM and the IC50 [15] was greater than 30000 nM. It also gave a pKa [16] of 5.9, a logD [17] of 2.1 and an IC50 [18] greater than 30000 nM. It also gave an IC50 [19] greater than 30000 nM, a half-life [20] of 1.5 h and an IC50 [21] greater than 30000 nM. The clearance [22] was 40 mL/min/kg, the CL free [23] was 214 mL/min/kg and the IC50 [24] was greater than 30000 nM. For the same compound, the IC50 [25] was 15 nM, the IC50 [26] was greater than 30000 nM and the solubility [27] was 2000 µg/mL (≈ 7.29 mM). The IC50 [28] was greater than 30000 nM and the IC50 [29] was greater than 30000 nM.
Compound CC(C)(C)c1ccc2[nH]c([C@H]3C[C@@H](O)CN3)nc2c1 has an IC50 [25] of 31 nM.
C[C@@H](C(N)=O)[C@H](N)c1cn2cc(C(C)(C)C)ccc2n1 showed a Papp A→B [3] of 2.2 ×10⁻⁶ cm/s, an IC50 [5] greater than 72000 nM and a Stability [12] of 2.5 µL/min. For the same compound, the Stability [13] was less than 11 µL/min, the pKa [16] was 7 and the IC50 [19] was greater than 10000 nM.
With CC(C)(C)c1ccc2ncc([C@H](N)CO)nc2c1 the IC50 [25] was greater than 1000 nM.
In the case of CC(C)(C)c1ccc2[nH]c([C@@](C)(N)CO)nc2c1, the IC50 [25] is reported as 65 nM.
C[C@@H](O)[C@H](N)c1nc2cc(C(C)(C)C#N)ccc2[nH]1 gave an IC50 [25] of 728 nM.
Compound CC(C)(C)c1ccc2ncc([C@@H](N)CO)nc2c1 has an IC50 [25] greater than 1000 nM.
CC(C)(C)c1ccc2nc([C@H](N)CO)cnc2c1 showed an IC50 [25] greater than 1000 nM.
For CO[C@H](C)[C@H](N)c1nc2cc(-c3ccc(C#N)cc3F)ccc2[nH]1, the IC50 [25] was 18 nM.
CCC[C@H](N)c1nc2cc(C(C)(C)C)ccc2[nH]1 showed an IC50 [25] of 2 nM.
With CO[C@H](C)[C@H](N)c1nc2cc(-c3ccc(C#N)nc3)ccc2[nH]1 the IC50 [25] was 998 nM.
Work on CCC(C)c1ccc2[nH]c([C@@H](N)CO)nc2c1 (stereo partly drawn) yielded an IC50 [25] of 708 nM.
In the case of C[C@@H](O)[C@H](N)c1nc2cc(C(F)(F)F)ccc2[nH]1, the IC50 [25] is reported as 534 nM.
Work on CO[C@H](C)[C@H](N)c1nc2cc(OC(F)(F)F)ccc2[nH]1 yielded an IC50 [25] of 2570 nM.
For CC1(c2ccc3[nH]c([C@@H](N)CO)nc3c2)CC1, the IC50 [25] was 593 nM.
Work on CCCC(O)c1nc2cc(C(C)(C)C)ccc2[nH]1 (stereo not drawn) yielded an IC50 [25] greater than 1000 nM.
For CN[C@@H](CC(N)=O)c1nc2cc(C(C)(C)C)ccc2[nH]1, the IC50 [25] was 742 nM.
CO[C@H](C)[C@H](N)c1nc2cc(C(C)(C)C)ccc2[nH]1 showed an IC50 [25] of 24 nM.
CC(C)(C)c1ccc2[nH]c([C@H]3CCCN3)nc2c1 showed an IC50 [25] of 43 nM.
Compound CC(C)c1ccc2[nH]c([C@@H](N)[C@@H](C)O)nc2c1 has an IC50 [25] of 43 nM.
Compound C[C@H](O)[C@@H](N)c1nc2cc(-c3ccc(C#N)cc3)ccc2[nH]1 has an IC50 [25] of 579 nM.
In the case of C[C@@H](O)[C@H](N)c1nc2cc(S(F)(F)(F)(F)F)ccc2[nH]1, the IC50 [25] is reported as 95 nM.
Compound CC(C)(C)c1ccc2[nH]c(C(C)(C)N)nc2c1 has an inhibition at 10 µM (Nav1.5 (SCN5A)) of 12% and an IC50 [25] of 607 nM.
CC(C)(C)c1ccc2nc([C@@H](N)CO)cnc2c1 gave an IC50 [25] greater than 1000 nM.
